Laboratory results: patent US20110039869A1, “COMPOSITION FOR INHIBITING THE ACTIVITY OF INOSITOL 1,4,5-TRIPHOSPHATE RECEPTOR SUBTYPE III” (Korea Institute of Science and Technology, priority 2008, published 2011)
“Also recorded” adds a separate entry of the source. Read-outs that look alike come from different tables or passages of the source.

Columns and labels:
U178MG cells [1] = experiment: Ca2+ imaging: block against agonist-induced intracellular Ca2+ release in U178MG cells; format: cell-based, human; details: for TFLLR induced Ca2+ release: 10 mM compound; for IC50: Homo sapiens, U178MG cells
Method: 100 seconds after the treatment, the cells were divided into two separate groups, each being stimulated with GPCR (G-protein coupled receptors) agonists, i.e., […] or 10 μM bradykinin, respectively. […] The measurement of Ca^2+ concentration through the measurement of inward current was conducted as described in ‘Justin Lee, et al., The Journal of Physiology, Astrocytic control of synaptic NMDA receptor, 2007’, which is hereby incorporated by reference for all purposes as if fully set forth herein.
After 100 seconds, the cells were stimulated with 30 μM TFLLR.
Error bars indicate SEM. […] Such substance may include: iso-propyl theophylline, 7-(β-3-hydroxyethyl)theophylline, xanthine, theophylline, and 1,7-dimethyl-3-isobutyl xanthine.

[2] = test system: U178MG, U87MG, wtEGFR, and ΔEGRF cells; experiment: Scrape motility assay; format: cell-based, human; details: 24 hours; 10 mM caffeine, 1 μM thapsigargin, 10 μM 2-APB, 20 μM CPA, 50 μM BAPTA-AM, 10 μM ryanodine
Method: The cell lines were obtained from Emory Uni (U178MG) and ATCC (U87MG, T98G, and M59K). All cell lines were grown as monolayers in 12-well culture plates in serum-containing media (Emory Uni). […] To prevent proliferation, fluorodeoxyuridine (FdU/U; Sigma) was added. After incubation for 24 hours, the cells were fixed in 4% paraformaldehyde. The area of repopulation of three 10× fields within the scrape areas were determined and the mean percentage of scrape area to wound closure was determined.

[3] = test system: shRNA for IP3R3 expressing U178MG cells; experiment: Block against Ca2+ responses in U178MG cells expressing shRNA for IP3R3; format: cell-based, human
Method: FIGS. 6d and 6e are Ca^2+ imaging result for U178MG cells, which were transfected with GFP-attached shRNA for IP3R3 via electroporation.

[4] = test system: U178MG, U87MG, U373MG, and T98G cells; experiment: Matrigel invasion assay; format: cell-based, human; details: 24 h; 1, 2, 5, 10 mM caffeine; dose dependent
Method: The cell lines were obtained from ATCC. […] Cell invasion was assayed using transwell inserts (Corning, N.Y., USA) containing […] pore size in 24-well culture plates. For invasion assay, inserts were coated with 2 mg/ml basement membrane Matrigel (BD Bioscience, Bedford, Mass., USA). 1×10^5 cells in serum-free medium (FBS, DMEM, from GIBCO, Invitrogen, USA) were plated onto the upper side of insert and complete medium was placed in the lower chamber to act as a chemoattractant. After 24 h of incubation at 37° C., the cells on the upper side of insert were removed by wiping with a cotton swab and cells migrated to the lower side of membrane were stained with DAPI (Molecular Probes, Invitrogen, USA) and randomly photographed with microscopy at ×40 magnification. The mean number of untreated cells was considered as 100% invasion.

glioma = experiment: Soft agar assay (colony formation); format: cell-based, human; details: 0.5, 1, 2, 5, 10 mM caffeine; 14 to 17 days; dose dependent
Method: Cells (1×10^4) were seeded into 6-well plates in a soft agar (0.3%, Difco) overlaying a 0.6% base agar. […] Cells were incubated at 37° C. for 14 to 17 days to allow colonies to develop. Afterward colonies were stained with 0.05% cresyl violet and photographed. The group without caffeine treatment was used as a control. Each assay was done in triplicate (n=3).

U178MG glioma cells = experiment: Invasion of U178MG glioma cells in organotypic hippocampal slice cultures (OHSCs); format: cell-based, human; details: 1, 2, 5, 10 mM caffeine; 120 hours vs 1 hour; proportional to concentration
U87MG cells [5] = experiment: Xenograft tumor growth assay; format: in vivo, athymic mice (Balb/c nu/nu); details: caffeine 1 mg/ml in drinking water from day 7; 4 weeks
Method: Five-week-old athymic mice (Balb/c nu/nu) were obtained from Central Lab. Animal Inc. (Japan). For the xenograft tumor growth assay, U87MG cells (3×10^5 cells/150 ul PBS) were injected subcutaneously into the right flanks of the mice (n=5 to 10 mice per group), and the experiment was conducted in triplicate. […] The control animals were given distilled water. Tumor mass was estimated twice per week for 4 weeks, and tumor volumes were calculated by the formula: […]

U178MG cells [6] = experiment: Dependence of caffeine action on store-operated channels or store depletion; format: cell-based, human; details: 10 mM caffeine; thapsigargin 1 μM, cyclopiazonic acid 20 μM
Method: Firstly, 1 μM thapsigargin was applied for 2 min in Ca^2+ free HEPES buffer. After depletion of Ca^2+ from endoplasmic reticulum, extra solution was changed to 2 mM Ca^2+HEPES buffer.

U178MG cells [7] = experiment: Live imaging of cell migration; format: cell-based, human; details: 10 minute intervals for 9 hours
[8] = test system: GBM, U178MG, T98G, U87MG and HEK293; experiment: Block against GPCR agonist-induced intracellular Ca2+ release in various cell types; format: cell-based, human; details: 10 mM caffeine
Method: The cell lines were obtained from Department of Neurosurgery, Seoul National University College of Medicine (GBM), Emory Uni. ([…]) and ATCC (T98G, U87MG, and HEK293), respectively. […] Error bars are mean±SEM.

U87MG cells [9] = experiment: Orthotropic implantation model, survival rate; details: 1 mg/ml caffeine containing drinking water

CC(C)Cn1c(=O)n(C)c(=O)c2c1ncn2C [1,7-dimethyl-3-isobutyl xanthine]
blocking effect on IP3R3 mediated-Ca2+ response (U178MG cells [1]; caffeine analogs, FIG. 10c): excellent selective blocking effect

NCCOB(c1ccccc1)c1ccccc1 [2-APB]
motility (wound closure by cell migration) [2]: mimicked

Cn1c(=O)c2c(ncn2CCO)n(C)c1=O [7-(β-3-hydroxyethyl)theophylline]
blocking effect on IP3R3 mediated-Ca2+ response (U178MG cells [1]; caffeine analogs, FIG. 10c): excellent selective blocking effect

CCn1cnc2c1c(=O)n(C)c(=O)n2C [7-ethyl theophylline]
TFLLR induced Ca2+ release (U178MG cells [1]; 30 μM TFLLR): no inhibition

CC(=O)OCOC(=O)CN(CC(=O)OCOC(C)=O)c1ccccc1OCCOc1ccccc1N(CC(=O)OCOC(C)=O)CC(=O)OCOC(C)=O [BAPTA-AM]
motility (wound closure by cell migration) [2]: mimicked

COc1ccc2c(c1)CC[C@@H]1[C@@H]2CC[C@]2(C)[C@@H](NCCCCCCN3C(=O)C=CC3=O)CC[C@@H]12 [U73122]
release of Ca2+ from intracellular stores in response to activation of GPCRs and RTKs (U178MG cells [1]; GBM cells): completely inhibited

Cn1c(=O)c2c(ncn2C)n(C)c1=O [caffeine]
increase of [Ca2+]i after stimulation with EGF or bradykinin (U178MG cells [1]; 10 mM caffeine, 100 ng/ml EGF or 10 μM bradykinin): no significant increase | TFLLR induced Ca2+ release (U178MG cells [1]; 30 μM TFLLR): inhibited | increase of TFLLR-induced intracellular Ca2+ concentration (U178MG cells [1]; 0.3, 3, 10, 30 mM caffeine, 30 μM TFLLR, concentration dependent): inhibits the increase | IC50 (U178MG cells [1]; EGF 100 ng/ml, read-out: IC50, Ca2+ release evoked by EGF): 1870 µM | IC50 (U178MG cells [1]; TFLLR 30 μM, read-out: IC50, Ca2+ release evoked by TFLLR): 2450 µM | block against Ca2+ responses, IP3R3 silenced by shRNA [3]: 20% | invasion through Matrigel [4]: reduced the invasion rate; also recorded: significantly inhibited | proliferation / anchorage-independent growth (colonies) (glioma): reduced the anchorage-independent growth; also recorded: significantly inhibited | invasion area of DiI-stained cells (U178MG glioma cells): invasion area was reduced | increase of tumor mass (U87MG cells [5]): significantly inhibited | cause of Ca2+ block (store depletion, store-operated channels) (U178MG cells [6]): not due to Ca^2+ depletion or block of Ca^2+ flow through TRPC | migration of U178MG cells (U178MG cells [7]): significantly slowed down | GPCR-induced intracellular Ca2+ release in GBM, U178MG, T98G, U87MG and HEK293 [8]: inhibited | degree of inhibition of Ca2+ responses, U178MG cells compared with other cell types [8]: highest blocking effect | intracellular Ca2+ release ([8]; 10 μM bradykinin): blocked | intracellular Ca2+ release / Ca2+ responses, HEK293T cell line ([8]; 30 μM TFLLR): blocked; also recorded: lowest blocking effect | survival rate (U87MG cells [9]): significantly increase the survival rate

CC(C)n1cnc2c1c(=O)n(C)c(=O)n2C [iso-propyl theophylline]
blocking effect against Ca2+ release (% block) (U178MG cells [1]; caffeine analogs, FIG. 10c): some degree of blocking effects | blocking effect on IP3R3 mediated-Ca2+ response (U178MG cells [1]; caffeine analogs, FIG. 10c): excellent selective blocking effect

C/C=C(/C)C(=O)O[C@H]1C(C)=C2[C@H]([C@@H]1OC(=O)CCCCCCC)[C@@](C)(OC(C)=O)C[C@H](OC(=O)CCC)[C@@]1(O)[C@H]2OC(=O)[C@@]1(C)O [thapsigargin]
subsequent induction increase in [Ca2+]i by bradykinin after store depletion (U178MG cells [1]; store depletion by thapsigargin): completely inhibited | motility (wound closure by cell migration) [2]: mimicked

Cn1c(=O)c2[nH]cnc2n(C)c1=O [theophylline]
blocking effect on IP3R3 mediated-Ca2+ response (U178MG cells [1]; caffeine analogs, FIG. 10c): excellent selective blocking effect

O=c1[nH]c(=O)c2[nH]cnc2[nH]1 [xanthine]
blocking effect on IP3R3 mediated-Ca2+ response (U178MG cells [1]; caffeine analogs, FIG. 10c): excellent selective blocking effect

ryanodine
motility (wound closure by cell migration) [2]: did not show any cell migration as such
